The numbers were not newly measured in patent US5723589A, “Carbohydrate conjugated bio-active compounds” (ICN Pharmaceuticals, priority 1995, dated 1998), which cites them from elsewhere.

The subject of one data set is GLUT-1 in cancer cells. Particulars: inhibition of GLUT-1 functioning by binding; cited from earlier work.
A further data set has as its system blood brain barrier. To be noted: concentrated solutions infused into the carotid arteries; cited from earlier work.
Data set [1] relates to GLUT-1 in normal 3T3 fibroblasts. To be noted: Endocrinology 1990, 126, 2778; cited from earlier work.

In the case of `Cc1ccc(C(=O)Nc2ccc(S(=O)(=O)O)c3cc(S(=O)(=O)O)cc(S(=O)(=O)O)c23)cc1NC(=O)c1cccc(NC(=O)Nc2cccc(C(=O)Nc3cc(C(=O)Nc4ccc(S(=O)(=O)O)c5cc(S(=O)(=O)O)cc(S(=O)(=O)O)c45)ccc3C)c2)c1` [suramin], the “glucose uptake and growth rate of the treated cells” value with GLUT-1 in cancer cells is “significantly limits glucose uptake and the growth rate of the treated cells”. Take `OC[C@@H](O)[C@@H](O)[C@H](O)[C@H](O)CO` [mannitol]: the “disruption of the blood brain barrier” value in the data set on blood brain barrier is “disrupt the blood brain barrier long enough to allow methotrexate and other potent chemotherapeutic agents to penetrate brain tumors”. Turning to Sodium vanadate, in data set [1], the GLUT-1 expression result is “able to induce GLUT-1 expression” and the “extension of the half-life of GLUT-1 mRNA” value was 2-3 times.
